Experimental data from patent US11254663B2 (BRISTOL-MYERS SQUIBB COMPANY, priority 2019, dated 2022).

Molecular target: FXR (Homo sapiens (Human), UniProt Q96RI1)
Test: transient human FXR/Gal4-luciferase reporter assay
Assay type: cell-based
Details: Gal4-hFXR fusion construct, HEK293 reporter cells; response relative to 8 μM GW-4064
Procedure, shortened: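 Compound exposure ran overnight at 37 °C and activity was measured as luminescence with Steady-Glo reagent. The cells were a HEK293 line stably expressing firefly luciferase under five Gal4 response elements. They were transiently transfected, one night beforehand, with a plasmid encoding Gal4 DNA-binding domain fused to the human FXR ligand-binding domain.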

Chain of FXR (Q96RI1 262-486): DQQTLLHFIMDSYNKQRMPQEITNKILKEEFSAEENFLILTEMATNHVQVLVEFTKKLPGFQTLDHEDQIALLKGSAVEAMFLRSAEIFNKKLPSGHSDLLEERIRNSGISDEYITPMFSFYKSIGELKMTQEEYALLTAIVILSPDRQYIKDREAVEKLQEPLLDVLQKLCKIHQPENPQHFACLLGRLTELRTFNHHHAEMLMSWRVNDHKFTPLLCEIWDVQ

Structure (SMILES)	EC50
O=C(N(CC12CCC(c3nc(C4CC4)no3)(CC1)CC2)c1cccc(-c2cnc3cc(Cl)cnn23)c1)C12CC(F)(C1)C2 [Example 329, N-(3-(7-chloroimidazo[1,2-b]pyridazin-3-yl)phenyl)-N-((4-(3-cyclopropyl-1,2,4-oxadiazol-5-yl)bicyclo[2.2.2]octan-1-yl)methyl)-3-fluorobicyclo[1.1.1]pentane-1-carboxamide]	222 nM
O=C(N(CC12CCC(c3nc(C4CC4)no3)(CC1)CC2)c1cccc(-c2cccn3ccnc23)c1)C12CC(F)(C1)C2 [Example 330, N-((4-(3-cyclopropyl-1,2,4-oxadiazol-5-yl)bicyclo[2.2.2]octan-1-yl)methyl)-3-fluoro-N-(3-(imidazo[1,2-a]pyridin-8-yl)phenyl)bicyclo[1.1.1]pentane-1-carboxamide]	392 nM
O=C(N(CC12CCC(c3nc(C4CC4)no3)(CC1)CC2)c1cccc(-c2ccc3nc(O)ccc3c2)c1)C12CC(F)(C1)C2 [Example 331, N-((4-(3-cyclopropyl-1,2,4-oxadiazol-5-yl)bicyclo[2.2.2]octan-1-yl)methyl)-3-fluoro-N-(3-(2-hydroxyquinolin-6-yl)phenyl)bicyclo[1.1.1]pentane-1-carboxamide]	231 nM
O=C1Cc2cc(-c3cccc(N(CC45CCC(c6nc(C7CC7)no6)(CC4)CC5)C(=O)C45CC(F)(C4)C5)c3)ccc2N1 [Example 332, N-((4-(3-cyclopropyl-1,2,4-oxadiazol-5-yl)bicyclo[2.2.2]octan-1-yl)methyl)-3-fluoro-N-(3-(2-oxoindolin-5-yl)phenyl)bicyclo[1.1.1]pentane-1-carboxamide]	158 nM
CCOc1cnc(-c2cccc(N(CC34CCC(c5nc(C6CC6)no5)(CC3)CC4)C(=O)C34CC(F)(C3)C4)c2)nc1 [Example 333, N-((4-(3-cyclopropyl-1,2,4-oxadiazol-5-yl)bicyclo[2.2.2]octan-1-yl)methyl)-N-(3-(5-ethoxypyrimidin-2-yl)phenyl)-3-fluorobicyclo[1.1.1]pentane-1-carboxamide]	302 nM
COc1cnc(-c2cccc(N(CC34CCC(c5nc(C6CC6)no5)(CC3)CC4)C(=O)C34CC(F)(C3)C4)c2)nc1 [Example 334, N-((4-(3-cyclopropyl-1,2,4-oxadiazol-5-yl)bicyclo[2.2.2]octan-1-yl)methyl)-3-fluoro-N-(3-(5-methoxypyrimidin-2-yl)phenyl)bicyclo[1.1.1]pentane-1-carboxamide]	77 nM
O=C(N(CC12CCC(c3nc(C4CC4)no3)(CC1)CC2)c1cccc(-c2ncc(OC(F)F)cn2)c1)C12CC(F)(C1)C2 [Example 335, N-((4-(3-cyclopropyl-1,2,4-oxadiazol-5-yl)bicyclo[2.2.2]octan-1-yl)methyl)-N-(3-(5-(difluoromethoxy)pyrimidin-2-yl)phenyl)-3-fluorobicyclo[1.1.1]pentane-1-carboxamide]	26 nM
CC(=O)Nc1cn2nc(-c3cccc(N(CC45CCC(c6nc(C7CC7)no6)(CC4)CC5)C(=O)C45CC(F)(C4)C5)c3)ccc2n1 [Example 336, N-(3-(2-acetamidoimidazo[1,2-b]pyridazin-6-yl)phenyl)-N-((4-(3-cyclopropyl-1,2,4-oxadiazol-5-yl)bicyclo[2.2.2]octan-1-yl)methyl)-3-fluorobicyclo[1.1.1]pentane-1-carboxamide]	1230 nM
O=C(N(CC12CCC(c3nc(C4CC4)no3)(CC1)CC2)c1cccc(-c2ccnc(OC3CC3)n2)c1)C12CC(F)(C1)C2 [Example 337, N-(3-(2-cyclopropoxypyrimidin-4-yl)phenyl)-N-((4-(3-cyclopropyl-1,2,4-oxadiazol-5-yl)bicyclo[2.2.2]octan-1-yl)methyl)-3-fluorobicyclo[1.1.1]pentane-1-carboxamide]	380 nM
O=C(C1CC(F)(F)C1)N(CC12CCC(c3nc(C4CC4)no3)(CC1)CC2)c1cccc(-c2ccnc(OC3CC3)n2)c1 [Example 338, N-(3-(2-cyclopropoxypyrimidin-4-yl)phenyl)-N-((4-(3-cyclopropyl-1,2,4-oxadiazol-5-yl)bicyclo[2.2.2]octan-1-yl)methyl)-3,3-difluorocyclobutane-1-carboxamide]	1360 nM
COc1cc(-c2cccc(N(CC34CCC(c5nc(C6CC6)no5)(CC3)OC4)C(=O)C34CC(F)(C3)C4)c2)ccn1 [Example 339, N-((1-(3-cyclopropyl-1,2,4-oxadiazol-5-yl)-2-oxabicyclo[2.2.2]octan-4-yl)methyl)-3-fluoro-N-(3-(2-methoxypyridin-4-yl)phenyl)bicyclo[1.1.1]pentane-1-carboxamide]	378 nM
COc1cc(-c2ccnc(N(CC34CCC(c5nc(C6CC6)no5)(CC3)CC4)C(=O)C34CC(F)(C3)C4)c2)ccn1 [Example 340, N-((4-(3-cyclopropyl-1,2,4-oxadiazol-5-yl)bicyclo[2.2.2]octan-1-yl)methyl)-3-fluoro-N-(2′-methoxy-[4,4′-bipyridin]-2-yl)bicyclo[1.1.1]pentane-1-carboxamide]	398 nM
COc1ncc(-c2cccc(N(CC34CCC(c5nnc(C6CC6)o5)(CC3)CC4)C(=O)C34CC(F)(C3)C4)c2)cn1 [Example 341, N-((4-(5-cyclopropyl-1,3,4-oxadiazol-2-yl)bicyclo[2.2.2]octan-1-yl)methyl)-3-fluoro-N-(3-(2-methoxypyrimidin-5-yl)phenyl)bicyclo[1.1.1]pentane-1-carboxamide]	287 nM
COc1cc(-c2cccc(N(CC34CCC(c5nnc(C6CC6)o5)(CC3)CC4)C(=O)C34CC(F)(C3)C4)c2)ccn1 [Example 342, N-((4-(5-cyclopropyl-1,3,4-oxadiazol-2-yl)bicyclo[2.2.2]octan-1-yl)methyl)-3-fluoro-N-(3-(2-methoxypyridin-4-yl)phenyl)bicyclo[1.1.1]pentane-1-carboxamide]	120 nM
COc1ccc(-c2cccc(N(CC34CCC(c5nnc(C6CC6)o5)(CC3)CC4)C(=O)C34CC(F)(C3)C4)c2)cn1 [Example 343, N-((4-(5-cyclopropyl-1,3,4-oxadiazol-2-yl)bicyclo[2.2.2]octan-1-yl)methyl)-3-fluoro-N-(3-(6-methoxypyridin-3-yl)phenyl)bicyclo[1.1.1]pentane-1-carboxamide]	154 nM
CS(=O)(=O)Nc1ccc(-c2cccc(N(CC34CCC(c5nnc(C6CC6)o5)(CC3)CC4)C(=O)C34CC(F)(C3)C4)c2)cc1 [Example 344, N-((4-(5-cyclopropyl-1,3,4-oxadiazol-2-yl)bicyclo[2.2.2]octan-1-yl)methyl)-3-fluoro-N-(4′-(methylsulfonamido)-[1,1′-biphenyl]-3-yl)bicyclo[1.1.1]pentane-1-carboxamide]	293 nM
CS(=O)(=O)Nc1ccc(-c2cccc(N(CC34CCC(c5ccc(C6(C#N)CC6)cc5)(CC3)OC4)C(=O)C34CC(F)(C3)C4)c2)cc1 [Example 345, N-((1-(4-(1-Cyanocyclopropyl)phenyl)-2-oxabicyclo[2.2.2]octan-4-yl)methyl)-3-fluoro-N-(4′-(methylsulfonamido)-[1,1′-biphenyl]-3-yl)bicyclo[1.1.1]pentane-1-carboxamide]	264 nM
Cc1nc2ccc(-c3cccc(N(CC45CCC(c6ccc(C7(C#N)CC7)cc6)(CC4)OC5)C(=O)C45CC(F)(C4)C5)c3)cc2s1 [Example 346, N-((1-(4-(1-cyanocyclopropyl)phenyl)-2-oxabicyclo[2.2.2]octan-4-yl)methyl)-3-fluoro-N-(3-(2-methylbenzo[d]thiazol-6-yl)phenyl)bicyclo[1.1.1]pentane-1-carboxamide]	181 nM
Cc1nc2ccc(-c3cccc(N(CC45CCC(c6ccc(C7(C#N)CC7)cc6)(CC4)OC5)C(=O)C45CC(F)(C4)C5)c3)cc2o1 [Example 347, N-((1-(4-(1-cyanocyclopropyl)phenyl)-2-oxabicyclo[2.2.2]octan-4-yl)methyl)-3-fluoro-N-(3-(2-methylbenzo[d]oxazol-6-yl)phenyl)bicyclo[1.1.1]pentane-1-carboxamide]	123 nM
COc1ccc(-c2cccc(N(CC34CCC(c5ccc(C6(C#N)CC6)cc5)(CC3)OC4)C(=O)C34CC(F)(C3)C4)c2)cc1 [Example 349, N-((1-(4-(1-cyanocyclopropyl)phenyl)-2-oxabicyclo[2.2.2]octan-4-yl)methyl)-3-fluoro-N-(4′-methoxy-[1,1′-biphenyl]-3-yl)bicyclo[1.1.1]pentane-1-carboxamide]	130 nM
COc1ccc(-c2cccc(N(CC34CCC(c5ccc(C6(C#N)CC6)cc5)(CC3)OC4)C(=O)C34CC(F)(C3)C4)c2)cn1 [Example 350, N-((1-(4-(1-cyanocyclopropyl)phenyl)-2-oxabicyclo[2.2.2]octan-4-yl)methyl)-3-fluoro-N-(3-(6-methoxypyridin-3-yl)phenyl)bicyclo[1.1.1]pentane-1-carboxamide]	296 nM
COc1ncc(-c2cccc(N(CC34CCC(c5ccc(C6(C#N)CC6)cc5)(CC3)OC4)C(=O)C34CC(F)(C3)C4)c2)cn1 [Example 351, N-((1-(4-(1-cyanocyclopropyl)phenyl)-2-oxabicyclo[2.2.2]octan-4-yl)methyl)-3-fluoro-N-(3-(2-methoxypyrimidin-5-yl)phenyl)bicyclo[1.1.1]pentane-1-carboxamide]	266 nM
CCOc1ncc(-c2cccc(N(CC34CCC(c5ccc(C6(C#N)CC6)cc5)(CC3)OC4)C(=O)C34CC(F)(C3)C4)c2)cn1 [Example 352, N-((1-(4-(1-cyanocyclopropyl)phenyl)-2-oxabicyclo[2.2.2]octan-4-yl)methyl)-N-(3-(2-ethoxypyrimidin-5-yl)phenyl)-3-fluorobicyclo[1.1.1]pentane-1-carboxamide]	167 nM
CCOc1ncc(-c2cccc(N(CC34CCC(c5nc(C6CC6)no5)(CC3)OC4)C(=O)C34CC(F)(C3)C4)c2)cn1 [Example 353, N-((1-(3-cyclopropyl-1,2,4-oxadiazol-5-yl)-2-oxabicyclo[2.2.2]octan-4-yl)methyl)-N-(3-(2-ethoxypyrimidin-5-yl)phenyl)-3-fluorobicyclo[1.1.1]pentane-1-carboxamide]	328 nM
